Structures can show the parent of a compound that is named as a salt.

For the experiment, the target named is T1, recombinant human 5-HT5A receptor (Homo sapiens, UniProt P47898).
T1 construct: expressed in transfected cells; host or cells: HEK-EBNA (Human Embryonic Kidney-EBNA) cells, transient cDNA expression; membranes
T1 sequence (P47898 whole entry): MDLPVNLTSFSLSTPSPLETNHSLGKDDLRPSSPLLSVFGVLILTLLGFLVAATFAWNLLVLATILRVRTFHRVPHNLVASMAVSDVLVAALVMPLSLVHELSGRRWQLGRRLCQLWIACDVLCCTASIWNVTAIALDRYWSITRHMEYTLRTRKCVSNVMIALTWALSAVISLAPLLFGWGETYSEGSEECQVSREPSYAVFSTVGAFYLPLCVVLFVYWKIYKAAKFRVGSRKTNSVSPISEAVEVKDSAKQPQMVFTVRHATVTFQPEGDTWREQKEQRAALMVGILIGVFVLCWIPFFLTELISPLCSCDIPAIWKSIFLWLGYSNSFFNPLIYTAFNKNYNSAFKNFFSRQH
Description: [3H]LSD radioligand binding assay. The following applies: [3H]LSD (approximately 1 nM); membranes from transiently expressed 5-HT5A receptors in HEK-EBNA cells; Ki from IC50 by Cheng-Prussoff equation. How it is done:
A [^3H]LSD radioligand binding assay was used to determine the affinity of the compounds for the recombinant human 5-HT5A receptor, in membranes from transiently (cDNA) expressed 5-HT5A receptors in Human Embryonic Kidney-EBNA (HEK-EBNA) cells. Assay buffer consisted of Tris (50 mM) buffer containing 1 mM EGTA, 10 mM MgCl2 (pH 7.4) and 10 μM pargyline. The binding assay was carried out in 96-well-plates in the presence of [^3H]LSD (approximately 1 nM), approximately 2 μg/well of membrane protein, and 0.5 mg of Ysi-poly-1-lysine SPA beads in a final volume of 200 μl of buffer. Non-specific binding was defined using methiothepin 2 μM. Compounds were tested at 10 concentrations. All assays were conducted in duplicate and repeated at least two times. Assay plates were incubated for 120 min at room temperature before centrifugation. Bound ligand was determined using a Packard Topcount scintillation counter. IC50 values were calculated using a non-linear curve fitting program and Ki values calculated using the Cheng-Prussoff equation.
As a reminder, the Ki is a measure of affinity in units of concentration, obtained from inhibition or displacement. For `CC(C)OC(=O)Nc1ccc2nc(N[C@@H]3CCc4ccccc43)ccc2c1` [Example 138, [2-((R)-Indan-1-ylamino)-quinolin-6-yl]-carbamic acid isopropyl ester], the Ki is 8 nM.

In the case of `COc1cccc2c1C(Nc1ccc3cc(NC(=O)NC4CCN(CCSC)CC4)ccc3n1)CC2` (racemic) [Example 51, rac-1-[2-(7-Methoxy-indan-1-ylamino)-quinolin-6-yl]-3-[1-(2-methylsulfanyl-ethyl)-piperidin-4-yl]-urea], the Ki stood at 3.9 nM.

Regarding `COc1cccc2c1C(Nc1ccc3cc(NC(=O)C4CC4)ccc3n1)CC2` (racemic) [Example 140, rac-Cyclopropanecarboxylic acid [2-(7-methoxy-indan-1-ylamino)-quinolin-6-yl]-amide], the inhibition constant Ki was determined as 2.2 nM.

With `COc1cc(C)cc2c1C(Nc1ccc3cc(NC(=O)NC4CCN(C)CC4)ccc3n1)CC2` (racemic) [Example 131, rac-1-[2-(7-Methoxy-5-methyl-indan-1-ylamino)-quinolin-6-yl]-3-(1-methyl-piperidin-4-yl)-urea], the Ki was found to be 2.9 nM.

Consider `COCCN1CCC(NC(=O)Nc2ccc3nc(NC4CCCc5cccc(OC)c54)ccc3c2)CC1` (racemic) [Example 58, rac-1-[1-(2-Methoxy-ethyl)-piperidin-4-yl]-3-[2-(8-methoxy-1,2,3,4-tetrahydro-naphthalen-1-ylamino)-quinolin-6-yl]-urea], for which the Ki was 5.3 nM.

`O=C(Nc1ccc2nc(N[C@@H]3CCc4ccccc43)ccc2c1)N[C@@H]1C[C@H]2CC[C@@H](C1)N2C1CC1` [Example 99, 1-((3-exo)-8-Cyclopropyl-8-aza-bicyclo[3.2.1]oct-3-yl)-3-[2-((R)-indan-1-ylamino)-quinolin-6-yl]-urea]: the Ki was 3.9 nM.

In the case of `COc1cccc2c1C(Nc1ccc3cc(NC(=O)NC4CCN(CCF)CC4)ccc3n1)CC2` (racemic) [Example 46, rac-1-[1-(2-Fluoro-ethyl)-piperidin-4-yl]-3-[2-(7-methoxy-indan-1-ylamino)-quinolin-6-yl]-urea], the Ki was found to be 2.7 nM.

Take `CN(C)CCNC(=O)Nc1ccc2nc(N[C@@H]3CCc4ccccc43)ccc2c1` [Example 18, 1-(2-Dimethylamino-ethyl)-3-[2-((R)-indan-1-ylamino)-quinolin-6-yl]-urea]: the Ki turned out to be 7.3 nM.

As for `COc1cccc2c1C(Nc1ccc3cc(NC(=O)NC4CCN(CCF)CC4)ccc3n1)CCC2` (racemic) [Example 59, rac-1-[1-(2-Fluoro-ethyl)-piperidin-4-yl]-3-[2-(8-methoxy-1,2,3,4-tetrahydro-naphthalen-1-ylamino)-quinolin-6-yl]-urea], the Ki was determined as 5.9 nM.

Take `CC(C)NC(=O)Nc1ccc2nc(NC3CCc4cccc(F)c43)ccc2c1` (racemic) [Example 146, rac-1-[2-(7-Fluoro-indan-1-ylamino)-quinolin-6-yl]-3-isopropyl-urea]: the inhibitory constant (Ki) is 6.1 nM.

Turning to `CS(=O)(=O)CCN1CCC(NC(=O)Nc2ccc3nc(N[C@@H]4CCc5ccccc54)ccc3c2)CC1` [Example 135, 1-[2-((R)-Indan-1-ylamino)-quinolin-6-yl]-3-[1-(2-methanesulfonyl-ethyl)-piperidin-4-yl]-urea], the Ki was determined as 5.7 nM.

With `CC(C)N=C(Nc1ccc2nc(N[C@@H]3CCc4ccccc43)ccc2c1)NC(C)C` [Example 166, N-[2-((R)-Indan-1-ylamino)-quinolin-6-yl]-N′,N″-diisopropyl-guanidine], the Ki was determined as 33.7 nM.

As to `NS(=O)(=O)Nc1ccc2nc(N[C@@H]3CCc4ccccc43)ccc2c1` [Example 72, N-{2-[(1R)-2,3-dihydro-1H-inden-1-ylamino]quinolin-6-yl}sulfamide hydrochloride], the Ki turned out to be 8.4 nM.

For `COc1cccc2c1C(Nc1ccc3cc(NC(=O)N[C@@H]4C[C@H]5CC[C@@H](C4)N5C(C)C)ccc3n1)CC2` (mixture of isomers) [Example 186, rac-1-((3-exo)-8-Isopropyl-8-aza-bicyclo[3.2.1]oct-3-yl)-3-[2-(7-methoxy-indan-1-ylamino)-quinolin-6-yl]-urea], the Ki was 5.7 nM.

As to `COc1cccc2c1C(Nc1ccc3cc(NC(=O)NC4CCN(C)CC4)ccc3n1)CCC2` (racemic) [Example 57, rac-1-[2-(8-Methoxy-1,2,3,4-tetrahydro-naphthalen-1-ylamino)-quinolin-6-yl]-3-(1-methyl-piperidin-4-yl)-urea], the Ki came to 5.8 nM.

As for `O=C(Nc1ccc2nc(N[C@@H]3CCc4ccccc43)ccc2c1)NC1CCCCC1` [Example 5, 1-Cyclohexyl-3-[2-((R)-indan-1-ylamino)-quinolin-6-yl]-urea], the Ki was determined as 2.9 nM.

For `COc1cccc2c1C(Nc1ccc3cc(NC(=O)NC4CC5CCCC(C4)N5C)ccc3n1)CC2` (racemic) [Example 50, rac-1-[2-(7-Methoxy-indan-1-ylamino)-quinolin-6-yl]-(9-methyl-9-aza-bicyclo[3.3.1]non-3-yl)-urea], the Ki was determined as 5.2 nM.

For `CC(C)N1CCC(NC(=O)Nc2ccc3nc(NC4CCc5ccc(F)cc54)ccc3c2)CC1` (racemic) [Example 155, rac-1-[2-(6-Fluoro-indan-1-ylamino)-quinolin-6-yl]-3-(1-isopropyl-piperidin-4-yl)-urea], the Ki turned out to be 6.3 nM.

The record behind these values is patent publication US8183380B2, “2-aminoquinolines” (Hoffmann-La Roche Inc., priority 2008, dated 2012).
